Patent US20240158439A1, “INHIBITORS OF ANTIGEN PRESENTATION BY MHC CLASS II HLA-DRB1*15:01 MOLECULES WITH ENHANCED METABOLIC STABILITY” (Provid Pharmaceuticals Inc., priority 2021, published 2024)
Read-outs that look alike come from different tables or passages of the source. *1 amine or outer side, *2 acyl side, *3 side chain or, on linkers, in order; H or OH if unused. Where a SMILES comes first, the peptide text is derived from it. [ ]: non-standard residue; d: D form. The star is where a group is joined. ξ: configuration not given here. ξGly(4-Pip(1-amidino)) = N=C(N)N1CCC(C(N)C(=O)O)CC1; X4 = O=C([C@H](Cc1cccc2[nH]ncc12)N[*:1])[*:2]; Oic = O=C(O)[C@@H]1C[C@@H]2CCCC[C@@H]2N1; Phe(4-F) = N[C@@H](Cc1ccc(F)cc1)C(=O)O; Bta = N[C@@H](Cc1csc2ccccc12)C(=O)O; Gly(cPent) = N[C@H](C(=O)O)C1CCCC1; Tic = O=C(O)[C@@H]1Cc2ccccc2CN1; Cit = NC(=O)NCCC[C@H](N)C(=O)O; Chg = N[C@H](C(=O)O)C1CCCCC1; NHPhenethyl = c1ccc(CCN*)cc1; Tle = CC(C)(C)[C@H](N)C(=O)O; Nva = CCC[C@H](N)C(=O)O; βAla = NCCC(=O)O; Sar = CNCC(=O)O

Molecular target: T1, HLA-DRB1*15:01 (Homo sapiens, UniProt P01903+P01911)
T1 construct: endogenous in cells; host or cells: EBV homozygous cell lines (human)
Assay: HLA II binding assay (competitive, biotinylated reference peptide)

[1] = Table 2, DRB1*15:01 binding, unit inferred, nM, read-out: Avg IC50

Molecule	IC50 [1] [nM]	loss in binding affinity relative to PV-267 (N-methyl amide vs primary amide) [fold]	IC50 (read-out: binding IC50) [nM]
CC(=O)N[C@H](C(=O)N[C@H](C(=O)N[C@@H](CCCNC(=N)N)C(=O)N1Cc2ccccc2C[C@H]1C(=O)N[C@@H](Cc1ccc(F)cc1)C(N)=O)C1CCCCC1)C(C)C [PV-574] (Ac-V[Chg]R[Tic][Phe(4-F)]-NH2)	2.3		
CC(=O)N[C@H](C(=O)N[C@@H](CCCNC(=N)N)C(=O)N1Cc2ccccc2C[C@H]1C(=O)N[C@@H](Cc1csc2ccccc12)C(N)=O)C1CCCCC1 [PV-477] (Ac-[Chg]R[Tic][Bta]-NH2)	82		
CC(=O)N[C@H](C(=O)N[C@H](C(=O)N[C@@H](CCCNC(=N)N)C(=O)N1Cc2ccccc2C[C@H]1C(=O)N[C@@H](Cc1csc2ccccc12)C(N)=O)C1CCCCC1)C(C)C [PV-478] (Ac-V[Chg]R[Tic][Bta]-NH2)	2.1		
CC(=O)N[C@H](C(=O)N[C@H](C(=O)NC(C(=O)N1Cc2ccccc2C[C@H]1C(=O)N[C@@H](Cc1ccccc1)C(N)=O)C1CCN(C(=N)N)CC1)C1CCCCC1)C(C)C (stereo partly drawn) [PV-810] (Ac-V[Chg][ξGly(4-Pip(1-amidino))][Tic]F-NH2)	6		
CC(=O)N[C@H](C(=O)N[C@@H](CCCNC(=N)N)C(=O)N[C@@H](Cc1ccccc1)C(=O)N[C@@H](Cc1ccccc1)C(N)=O)C(C)C [PV-119, reference compound] (Ac-VRFF-NH2)	5000		
CC(=O)N[C@H](C(=O)N[C@H](C(=O)N[C@@H](CCCNC(=N)N)C(=O)N1Cc2ccccc2C[C@H]1C(=O)N[C@@H](Cc1cccc2[nH]ncc12)C(N)=O)C1CCCCC1)C(C)C [PV-676] (Ac-V[Chg]R[Tic][X4]-NH2)	3		
CC(C)[C@H](NC(=O)CCN)C(=O)N[C@H](C(=O)N[C@@H](Cc1ccccc1)C(=O)N[C@@H](Cc1ccccc1)C(=O)N[C@@H](Cc1ccccc1)C(N)=O)C1CCCCC1 [PV-782] (H-[βAla]V[Chg]FFF-NH2)	150		
CC(C)[C@H](NC(=O)CCN)C(=O)N[C@H](C(=O)N[C@@H](CCCNC(N)=O)C(=O)N1Cc2ccccc2C[C@H]1C(=O)N[C@@H](Cc1ccccc1)C(N)=O)C1CCCCC1 [PV-664] (H-[βAla]V[Chg][Cit][Tic]F-NH2)	2		
Ac-VVRFF-NH2 [PV-73, reference compound]	2370		
CC(=O)N[C@H](C(=O)N[C@H](C(=O)N[C@@H](CCCNC(=N)N)C(=O)N1Cc2ccccc2C[C@H]1C(=O)N[C@@H](Cc1ccccc1)C(N)=O)C1CCCC1)C(C)C [PV-573] (Ac-V[Gly(cPent)]R[Tic]F-NH2)	6.7		
CC(=O)N[C@H](C(=O)N[C@H](C(=O)N[C@@H](CCCNC(=N)N)C(=O)N1Cc2ccccc2C[C@H]1C(=O)NCCc1ccccc1)C1CCCCC1)C(C)C [PV-708, reference compound] (Ac-V[Chg]R[Tic]-NHPhenethyl)	464		
CC(=O)N[C@H](C(=O)N[C@H](C(=O)N[C@@H](CCCNC(=N)N)C(=O)N1Cc2ccccc2C[C@H]1C(=O)N[C@@H](Cc1ccccc1)C(N)=O)C1CCCCC1)C(C)(C)C [PV-590] (Ac-[Tle][Chg]R[Tic]F-NH2)	1.3		
CC(=O)N[C@H](C(=O)N[C@H](C(=O)N[C@@H](Cc1c[nH]cn1)C(=O)N1Cc2ccccc2C[C@H]1C(=O)N[C@@H](Cc1ccccc1)C(N)=O)C1CCCCC1)C(C)C [PV-580] (Ac-V[Chg]H[Tic]F-NH2)	28		
CC(=O)N[C@H](C(=O)N[C@H](C(=O)N[C@@H](CCCNC(=N)N)C(=O)N1Cc2ccccc2C[C@H]1C(=O)N[C@@H](Cc1c[nH]c2ccccc12)C(N)=O)C1CCCCC1)C(C)C [PV-579] (Ac-V[Chg]R[Tic]W-NH2)	1.3		
CNC(=O)[C@H](Cc1ccccc1)NC(=O)[C@@H]1Cc2ccccc2CN1C(=O)[C@H](CCCNC(=N)N)NC(=O)[C@@H](NC(=O)[C@@H](NC(C)=O)C(C)C)C1CCCCC1 [PV-625] (Ac-V[Chg]R[Tic]F-NHMe)		8	16
CO[C@H](C)[C@H](NC(C)=O)C(=O)N[C@H](C(=O)N[C@@H](CCCNC(=N)N)C(=O)N1Cc2ccccc2C[C@H]1C(=O)N[C@@H](Cc1ccccc1)C(N)=O)C1CCCCC1 [PV-592] (Ac-T(Me)[Chg]R[Tic]F-NH2)	4.1		
CCC[C@H](NC(C)=O)C(=O)N[C@H](C(=O)N[C@@H](CCCNC(=N)N)C(=O)N1Cc2ccccc2C[C@H]1C(=O)N[C@@H](Cc1ccccc1)C(N)=O)C1CCCCC1 [PV-591] (Ac-[Nva][Chg]R[Tic]F-NH2)	4.1		
CNCC(=O)N[C@H](C(=O)N[C@H](C(=O)N[C@@H](CCCNC(=N)N)C(=O)N1Cc2ccccc2C[C@H]1C(=O)N[C@@H](Cc1ccccc1)C(N)=O)C1CCCCC1)C(C)C [PV-636] (H-[Sar]V[Chg]R[Tic]F-NH2)	3		
CC(=O)N[C@H](C(=O)N[C@H](C(=O)N[C@@H](CCCNC(=N)N)C(=O)N1[C@H](C(=O)N[C@@H](Cc2ccccc2)C(N)=O)C[C@@H]2CCCC[C@@H]21)C1CCCCC1)C(C)C [PV-589, reference compound] (Ac-V[Chg]R[Oic]F-NH2)	474		
CC(=O)N[C@H](C(=O)N[C@@H](CCCNC(=N)N)C(=O)N1Cc2ccccc2C[C@H]1C(=O)N[C@@H](Cc1c[nH]c2ccccc12)C(N)=O)C1CCCCC1 [PV-507] (Ac-[Chg]R[Tic]W-NH2)	48		
